Experiments:
Type in all cases: in vivo
pigs [1] = experiment: Fourth experiment: 1500 pigs in four groups fed AFC1-AFC4, distribution in meat quality classes
Experimental: (§1) In most countries of the world, the quality of the carcass (without innards and blood) is determined as of muscle area, fat mm at back, total analysis of fat content etc. for determining the price of the carcass per kg warm or cold carcass weight (depending on country). For this purpose, the animals are scanned in the slaughtering line by means of sensors or image-giving techniques, and the proportion of muscles and the thickness of the backbone are measured and converted into an equation which then calculates the proportion of lean meat in the entire carcass. In the EU, the carcasses can be assigned to different meat quality groups according to the following classification scheme: • S=Highest quality=>60.85% lean-meat • E=Premium Quality=58.75% lean-meat • U=High Quality=>55.9% lean-meat • R=Medium Quality=>53.9% lean-meat • O=Low Quality=>51.1% lean-meat • P=very low Quality=<51.1% lean-meat
As a rule, during the last 4-week before slaughter day when beta adrenergic agonists are typically administered, an animal feed is administered which not only has a higher protein content but also a higher proportion of muscle-binding amino acids (e.g., lysine). For example, a manufacturer of a beta adrenergic agonist prescribes that the content of the limiting amino acid lysine and threonine in the feed must be about 30% higher than under “standard” conditions when the beta adrenergic agonist is administered. It is, however, known that only 30% of the amino acids added to the feed are resorbed and metabolized, the rest being lost.
The test was performed with 1500 pigs divided into four groups 1-4, each group comprising 375 pigs. The pigs were held in 100 units of 15 animals per unit. Different groups of pigs were fed with feeds of different compositions. The following table illustrates meat quality indicators.
(§2) The following animal feed compositions were administered: • AFC1: Corn, maize, soybean meal, vitamine, enzyme and mineral mixture comprising: 17% protein 0.8% lysine • AFC2: Corn, maize, Corn, maize, soybean meal, vitamine, enzyme and mineral mixture comprising: 17% protein, 0.8% lysine and 1 mg isoquinoline alkaloid/kg feed (mainly sanguinarine) • AFC3: Corn, maize, soybean meal, vitamine, enzyme and mineral mixture comprising: 19% protein, 1% lysine and a beta adrenergic agonist (ractopamin as “Paylean®” in recommended dosage (®=reg. trademark of Eli Lilly and Co.) • AFC4: Corn, maize, soybean meal, vitamine, enzyme and mineral mixture comprising: 17% protein, 0.9% lysine, 1 mg isoquinoline alkaloid (mainly sanguinarine)/kg feed and a beta adrenergic agonist (ractopamin as “Paylean®” Paylean in recommended dosage)

pigs [2] = experiment: Third experiment: meat quality classes of 120 pigs per group fed for the last four weeks until slaughter day
Experimental: The following table illustrates meat quality indicators obtained for 120 pigs fed for the last four weeks until slaughter day added with a beta adrenergic agonist at recommended dosages of 7.5 mg/kg feed and having a protein enriched feed formulation comparing to 120 other pigs fed during the same time period with the same feed which in addition the beta adrenergic agonist is also added with isoquinoline alkaloids like sanguinarin.
as §1

pigs [3] = experiment: Sixth experiment: test four repeated with 1310 pigs of a further animal farm
Experimental: as §1, §2
(§3) Test four was repeated with 1310 pigs of a further animal farm divided into four groups 1-4, each group comprising 330 pigs. The pigs were held in 11 units of 30 animals. Different groups of pigs were fed with feeds of different compositions as described for the fourth experiment. The following table illustrates meat quality indicators.

pigs [4] = experiment: Second experiment: 4 groups of 50 pigs fed different food and additive combinations for 4 weeks until slaughter day
From the text: In the second experimental test, 4 groups of 50 pigs were fed with different food and additive combinations for 4 weeks until slaughter day as presented in the table below. The Isoquinoline alkaloids in the feed of groups 2 and 3 mainly consisted of sanguinarine.

pigs [5] = experiment: Fifth experiment: test four repeated with 1700 pigs of a different farm
Experimental: as §1, §2
as §3, with “1700” for “1310”, “different” for “further animal”, “425” for “330”, “in” for “in 11”, “25” for “30”

[6] = class O >51.1% lean-meat, feeds AFC2, AFC3, AFC4, control 4
[7] = class E >58.75 % lean-meat, 120 pigs per group
[8] = class O >51.10 % lean-meat, 120 pigs per group
[9] = class P <51.10 % lean-meat, 120 pigs per group
[10] = class R >53.90 % lean-meat, 120 pigs per group
[11] = class U >55.90 % lean-meat, 120 pigs per group
[12] = class P <51.1% lean-meat, feeds AFC2, AFC3, AFC4, control 0

CC(CCc1ccc(O)cc1)NCC(O)c1ccc(O)cc1 (stereo not drawn) [ractopamine]
Distribution of slaughtered pigs in meat quality class E (pigs [1]; class E >58.75% lean-meat, feeds AFC2, AFC3, AFC4, control 35): 39%
Distribution of slaughtered pigs in meat quality class O (pigs [1]; [6]): 1%
Distribution of slaughtered pigs in meat quality class P (pigs [1]; class P <51.1% lean-meat, feeds AFC2, AFC3, AFC4, control 1): 0%
Distribution of slaughtered pigs in meat quality class R (pigs [1]; class R >53.9% lean-meat, feeds AFC2, AFC3, AFC4, control 10): 2%
Distribution of slaughtered pigs in meat quality class S (pigs [1]; class S >60.85% lean-meat, Group 2 feed AFC2, Group 3 AFC3, Group 4 AFC4, 375 pigs per group, control 35): 38%
Distribution of slaughtered pigs in meat quality class U (pigs [1]; class U >55.9% lean-meat, feeds AFC2, AFC3, AFC4, control 15): 20%
% of all pigs distributed in classes S and E (pigs [1]; fourth experiment, control 70%): 77%
% of all pigs in meat quality class E (pigs [2]; [7]): 41%
Number of pigs in meat quality class E (pigs [2]; [7]): 49
% of all pigs in meat quality class O (pigs [2]; [8]): 1%
Number of pigs in meat quality class O (pigs [2]; [8]): 1
% of all pigs in meat quality class P (pigs [2]; [9]): 0%
Number of pigs in meat quality class P (pigs [2]; [9]): 0
% of all pigs in meat quality class R (pigs [2]; [10]): 6%
Number of pigs in meat quality class R (pigs [2]; [10]): 7
% of all pigs in meat quality class S (pigs [2]; class S >60.85 % lean-meat, 120 pigs per group): 33%
Number of pigs in meat quality class S (pigs [2]; class S >60.85 % lean-meat, 120 pigs per group, ractopamin 7.5 mg/kg feed, protein enriched feed): 40
% of all pigs in meat quality class U (pigs [2]; [11]): 19%
Number of pigs in meat quality class U (pigs [2]; [11]): 23
numbers of S and E carcass classes as highest value carcasses (pigs [2]; third experiment, sum of classes S and E): 74%
Distribution of slaughtered pigs in meat quality class E (pigs [3]; class E >58.75% lean-meat, feeds AFC2, AFC3, AFC4, control 33): 38%
Distribution of slaughtered pigs in meat quality class O (pigs [3]; [6]): 1%
Distribution of slaughtered pigs in meat quality class P (pigs [3]; [12]): 0%
Distribution of slaughtered pigs in meat quality class R (pigs [3]; class R >53.9% lean-meat, feeds AFC2, AFC3, AFC4, control 11): 3%
Distribution of slaughtered pigs in meat quality class S (pigs [3]; class S >60.85% lean-meat, Group 2 feed AFC2, Group 3 AFC3, Group 4 AFC4, 330 pigs per group, control 30): 40%
Distribution of slaughtered pigs in meat quality class U (pigs [3]; class U >55.9% lean-meat, feeds AFC2, AFC3, AFC4, control 22): 18%
% of all pigs (carcasses classified as S and E quality) (pigs [3]; sixth experiment, control 63%): 78%
Feed conversion ratio (pigs [4]; 4 weeks until slaughter, isoquinoline alkaloids 1 mg/kg feed and/or ractopamin 7.5 mg/kg feed, control 2.78): 2.62
Daily weight gain (pigs [4]; 4 weeks until slaughter, isoquinoline alkaloids 1 mg/kg feed and/or ractopamin 7.5 mg/kg feed, control 753): 852 g
live mass at slaughter day (pigs [4]; after 4 weeks, isoquinoline alkaloids 1 mg/kg feed and/or ractopamin 7.5 mg/kg feed, soybean 15% (group 2), 17% (group 3), 20% (group 4), control 118): 125.5 kg
Fraction lean meat (pigs [4]; at slaughter, isoquinoline alkaloids 1 mg/kg feed and/or ractopamin 7.5 mg/kg feed, control 54.95): 58.5%
performance (daily weight gain, feed utilization, lean meat content) compared with the control group, in words (pigs [4]; second experiment, groups 2-4 versus group 1): significantly improves performance and increases the lean meat content and the feed utilization
Distribution of slaughtered pigs in meat quality class E (pigs [5]; class E >58.75% lean-meat, feeds AFC2, AFC3, AFC4, control 30): 35%
Distribution of slaughtered pigs in meat quality class O (pigs [5]; [6]): 2%
Distribution of slaughtered pigs in meat quality class P (pigs [5]; [12]): 0%
Distribution of slaughtered pigs in meat quality class R (pigs [5]; class R >53.9% lean-meat, feeds AFC2, AFC3, AFC4, control 15): 8%
Distribution of slaughtered pigs in meat quality class S (pigs [5]; class S >60.85% lean-meat, Group 2 feed AFC2, Group 3 AFC3, Group 4 AFC4, 425 pigs per group, control 26): 40%
Distribution of slaughtered pigs in meat quality class U (pigs [5]; class U >55.9% lean-meat, feeds AFC2, AFC3, AFC4, control 25): 15%
% of all pigs (carcasses classified as S and E quality) (pigs [5]; fifth experiment, control 56%): 75%
